According to patent publication US6620839B2, “1,3-disubstituted and 1,3,3-trisubstituted pyrrolidines as histamine-3 receptor ligands and their therapeutic applications” (Abbott Laboratories, priority 2000, dated 2003):

Target: T1, histamine-3 receptor (Rattus norvegicus, UniProt Q9QYN8)
T1 construct: from tissue; host or cells: male Sprague-Dawley rat brain cortex membranes
Assay: Histamine-3 receptor binding, (3H)-N-α-methylhistamine displacement in rat cortical membranes
Conditions: male Sprague-Dawley rat brain cortical membranes; (3H)-N-α-methylhistamine ~0.6 nM; 30 minutes at 25° C.; Cheng-Prusoff
Experimental: Briefly, male Sprague-Dawley rat brain cortices were homogenized (1 g tissue/10 mL buffer) in 50 mM Tris-HCl/5 mM EDTA containing protease inhibitor cocktail (Calbiochem) using a polytron set at 20,500 rpm. Homogenates were centrifuged for 20 minutes at 40,000×g. The supernatant was decanted, and pellets were weighed. The pellet was resuspended by polytron homogenization in 40 mL 50 mM Tris-HCl/5 mM EDTA with protease inhibitors and centrifuged for 20 minutes at 40,000×g. […] Test compounds were dissolved in DMSO to provide 20 mM solution, serially diluted and then added to the incubation mixtures prior to initiating the incubation assay by addition of the membranes. Thioperamide (3 μM) was used to determine nonspecific binding. Binding incubations were conducted for 30 minutes at 25° C. and terminated by addition of 2 mL of ice cold 50 mM Tris-HCl (pH 7.7) and filtration through 0.3% polyethylenimine-soaked Unifilter plates (Packard). These filters were washed 4 additional times with 2 mL of ice-cold 50 mM Tris-HCl and dried for 1 hour. Radioactivity was determined using liquid scintillation counting techniques. Results were analyzed by Hill transformation and Ki values were determined using the Cheng-Prusoff equation.

T1 sequence (Q9QYN8 whole entry): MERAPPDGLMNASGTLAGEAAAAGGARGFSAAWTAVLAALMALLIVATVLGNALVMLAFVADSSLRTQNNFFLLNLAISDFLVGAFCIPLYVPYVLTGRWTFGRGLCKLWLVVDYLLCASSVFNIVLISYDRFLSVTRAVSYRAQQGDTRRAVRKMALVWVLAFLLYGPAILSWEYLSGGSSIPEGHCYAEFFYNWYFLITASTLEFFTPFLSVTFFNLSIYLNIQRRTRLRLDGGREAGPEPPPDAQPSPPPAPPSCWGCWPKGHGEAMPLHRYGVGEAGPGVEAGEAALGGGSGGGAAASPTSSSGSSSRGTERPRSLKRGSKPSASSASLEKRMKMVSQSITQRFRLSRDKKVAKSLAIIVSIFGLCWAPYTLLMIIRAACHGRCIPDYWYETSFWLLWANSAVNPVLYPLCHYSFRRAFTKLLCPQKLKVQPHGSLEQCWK

Row | Molecule | Ki [nM]
1 | 1-(4-{3-[(3R)-3-aminopyrrolidinyl]propoxy}phenyl)-1-propanone [Example 7] | 31
2 | CC(=O)c1ccc(OCCCN2CC[C@@H](NC(=O)C3CC3)C2)cc1 [Example 1, N-{(3R)-1-[3-(4-acetylphenoxy)propyl]pyrrolidinyl}cyclopropanecarboxamide] | 105
3 | CC(=O)c1ccc(OCCCN2CC[C@@H](NC(=O)CSc3nccc(C)n3)C2)cc1 [Example 2, N-{(3R)-1-[3-(4-acetylphenoxy)propyl]pyrrolidinyl}-2-[(4-methyl-2-pyrimidinyl)sulfanyl]acetamide] | 68
4 | CC(=O)c1ccc(OCCCN2CC[C@@H](NC(=O)c3csc(-c4cccnc4)n3)C2)cc1 [Example 4, N-{(3R)-1-[3-(4-acetylphenoxy)propyl]pyrrolidinyl}-2-(3-pyridinyl)-1,3-thiazole-4-carboxamide] | 55
5 | CC(=O)c1ccc(OCCCN2CC[C@@H](NS(=O)(=O)c3ccc(C#N)cc3)C2)cc1 [Example 5, N-{(3R)-1-[3-(4-acetylphenoxy)propyl]pyrrolidinyl}-4-cyanobenzenesulfonamide] | 6.3
6 | CC(=O)c1ccc(OCCCN2CC[C@@H](NS(=O)(=O)C(C)C)C2)cc1 [Example 6, N-{(3R)-1-[3-(4-acetylphenoxy)propyl]pyrrolidinyl}-2-propanesulfonamide] | 95
7 | CC(=O)c1ccc(OCCCN2CC[C@@H](N3C(=O)N[C@@H](C)C3=O)C2)cc1 [Example 9, (5S)-3-{(3R)-1-[3-(4-acetylphenoxy)propyl]pyrrolidinyl}-5-methyl-2,4-imidazolidinedione] | 675
8 | CC(=O)c1ccc(OCCCN2CC[C@@H](N3C(=O)N[C@H](C(C)C)C3=O)C2)cc1 [Example 10, (5R)-3-{(3R)-1-[3-(4-acetylphenoxy)propyl]pyrrolidinyl}-5-isopropyl-2,4-imidazolidinedione] | 626
9 | N#Cc1ccc(S(=O)(=O)N[C@@H]2CCN(CCCOc3ccc(C(=O)C4CC4)cc3)C2)cc1 [Example 11, 4-cyano-N-((3R)-1-{3-[4-(cyclopropylcarbonyl)phenoxy]propyl}pyrrolidinyl)benzenesulfonamide] | 4
10 | CC(C)S(=O)(=O)N[C@@H]1CCN(CCCOc2ccc(C(=O)C3CC3)cc2)C1 [Example 12, N-((3R)-1-{3-[4-(cyclopropylcarbonyl)phenoxy]propyl}pyrrolidinyl)-2-propanesulfonamide] | 71
11 | O=C(N[C@@H]1CCN(CCCOc2ccc(C(=O)C3CC3)cc2)C1)c1csc(-c2cccnc2)n1 [Example 13, N-((3R)-1-{3-[4-(cyclopropylcarbonyl)phenoxy]propyl}pyrrolidinyl)-2-(3-pyridinyl)-1,3-thiazole-4-carboxamide] | 50
12 | CC(=O)c1ccc(OCCCN2CC[C@@H](NC(=O)c3ccc(C#N)cc3)C2)cc1 [Example 14, N-{(3R)-1-[3-(4-acetylphenoxy)propyl]pyrrolidinyl}-4-cyanobenzamide] | 40
13 | N#Cc1ccc(-c2ccc(OCCCN3CC[C@@H](NS(=O)(=O)c4ccccc4)C3)cc2)cc1 [Example 15] | 7.3
14 | N#Cc1ccc(-c2ccc(OCCCN3CC[C@@H](NS(=O)(=O)c4ccc(Br)cc4)C3)cc2)cc1 [Example 16, 4-bromo-N-((3R)-1-{3-[(4′-cyano[1,1′-biphenyl]-4-yl)oxy]propyl}pyrrolidinyl)benzenesulfonamide] | 67
15 | N#Cc1ccc(-c2ccc(OCCCN3CC[C@@H](NS(=O)(=O)c4ccc(F)cc4)C3)cc2)cc1 [Example 17] | 13
16 | N#Cc1ccc(-c2ccc(OCCCN3CC[C@@H](NS(=O)(=O)c4ccc(Cl)cc4)C3)cc2)cc1 [Example 18, 4-chloro-N-((3R)-1-{3-[(4′-cyano[1,1′-biphenyl]-4-yl)oxy]propyl}pyrrolidinyl)benzenesulfonamide] | 29
17 | CC(=O)Nc1ccc(S(=O)(=O)N[C@@H]2CCN(CCCOc3ccc(-c4ccc(C#N)cc4)cc3)C2)cc1 [Example 19, N-(4-{[((3R)-1-{3-[(4′-cyano[1,1′-biphenyl]-4-yl)oxy]propyl}pyrrolidinyl)amino]sulfonyl}phenyl)acetamide] | 3.8
18 | COc1ccc(S(=O)(=O)N[C@@H]2CCN(CCCOc3ccc(-c4ccc(C#N)cc4)cc3)C2)cc1 [Example 20] | 12
19 | CC(C)(C)c1ccc(S(=O)(=O)N[C@@H]2CCN(CCCOc3ccc(-c4ccc(C#N)cc4)cc3)C2)cc1 [Example 21, 4-tert-butyl-N-((3R)-1-{3-[(4′-cyano[1,1′-biphenyl]-4-yl)oxy]propyl}pyrrolidinyl)benzenesulfonamide] | 22
20 | Cc1ccc(S(=O)(=O)N[C@@H]2CCN(CCCOc3ccc(-c4ccc(C#N)cc4)cc3)C2)cc1 [Example 22] | 12
21 | N#Cc1ccc(-c2ccc(OCCCN3CC[C@@H](NS(=O)(=O)c4ccc(C(F)(F)F)cc4)C3)cc2)cc1 [Example 23] | 33

Row | Molecule | Ki [nM]
22 | COc1ccc(OC)c(S(=O)(=O)N[C@@H]2CCN(CCCOc3ccc(-c4ccc(C#N)cc4)cc3)C2)c1 [Example 24] | 43
23 | Cc1ccccc1S(=O)(=O)N[C@@H]1CCN(CCCOc2ccc(-c3ccc(C#N)cc3)cc2)C1 [Example 25] | 30
24 | N#Cc1ccc(-c2ccc(OCCCN3CC[C@@H](NS(=O)(=O)c4ccc(F)c(Cl)c4)C3)cc2)cc1 [Example 26, 3-chloro-N-((3R)-1-{3-[(4′-cyano[1,1′-biphenyl]-4-yl)oxy]propyl}pyrrolidinyl)-4-fluorobenzenesulfonamide] | 57
25 | CCc1ccc(S(=O)(=O)N[C@@H]2CCN(CCCOc3ccc(-c4ccc(C#N)cc4)cc3)C2)cc1 [Example 27] | 18
26 | CC(C)c1ccc(S(=O)(=O)N[C@@H]2CCN(CCCOc3ccc(-c4ccc(C#N)cc4)cc3)C2)cc1 [Example 28] | 16
27 | N#Cc1ccc(-c2ccc(OCCCN3CC[C@@H](NS(=O)(=O)c4ccccc4F)C3)cc2)cc1 [Example 29] | 5.9
28 | N#Cc1ccc(-c2ccc(OCCCN3CC[C@@H](NS(=O)(=O)c4ccccc4Cl)C3)cc2)cc1 [Example 30, 2-chloro-N-((3R)-1-{3-[(4′-cyano[1,1′-biphenyl]-4-yl)oxy]propyl}pyrrolidinyl)benzenesulfonamide] | 10
29 | N#Cc1ccc(-c2ccc(OCCCN3CC[C@@H](NS(=O)(=O)c4cccc(Cl)c4)C3)cc2)cc1 [Example 31, 3-chloro-N-((3R)-1-{3-[(4′-cyano[1,1′-biphenyl]-4-yl)oxy]propyl}pyrrolidinyl)benzenesulfonamide] | 30
30 | N#Cc1ccc(-c2ccc(OCCCN3CC[C@@H](NS(=O)(=O)c4cc(Cl)cc(Cl)c4)C3)cc2)cc1 [Example 32, 3,5-dichloro-N-((3R)-1-{3-[(4′-cyano[1,1′-biphenyl]-4-yl)oxy]propyl}pyrrolidinyl)benzenesulfonamide] | 99
31 | N#Cc1ccc(-c2ccc(OCCCN3CC[C@@H](NS(=O)(=O)c4ccc(C#N)cc4)C3)cc2)cc1 [Example 33, 4-cyano-N-((3R)-1-{3-[(4′-cyano[1,1′-biphenyl]-4-yl)oxy]propyl}pyrrolidinyl)benzenesulfonamide] | 16
32 | N#Cc1ccc(-c2ccc(OCCCN3CC[C@@H](NS(=O)(=O)c4cccc(C#N)c4)C3)cc2)cc1 [Example 34, 3-cyano-N-((3R)-1-{3-[(4′-cyano[1,1′-biphenyl]-4-yl)oxy]propyl}pyrrolidinyl)benzenesulfonamide] | 11
33 | Cn1cnc(S(=O)(=O)N[C@@H]2CCN(CCCOc3ccc(-c4ccc(C#N)cc4)cc3)C2)c1 [Example 35] | 13
34 | N#Cc1ccc(-c2ccc(OCCCN3CC[C@@H](NS(=O)(=O)c4cccs4)C3)cc2)cc1 [Example 36] | 12
35 | Cc1c(S(=O)(=O)N[C@@H]2CCN(CCCOc3ccc(-c4ccc(C#N)cc4)cc3)C2)sc2ccc(Cl)cc12 [Example 37, 5-chloro-N-((3R)-1-{3-[(4′-cyano[1,1′-biphenyl]-4-yl)oxy]propyl}pyrrolidinyl)-3-methyl-1-benzothiophene-2-sulfonamide] | 349
36 | N#Cc1ccc(-c2ccc(OCCCN3CC[C@@H](NS(=O)(=O)c4cc(C(F)(F)F)cc(C(F)(F)F)c4)C3)cc2)cc1 [Example 38] | 132
37 | CC(=O)Nc1nc(C)c(S(=O)(=O)N[C@@H]2CCN(CCCOc3ccc(-c4ccc(C#N)cc4)cc3)C2)s1 [Example 39, N-(5-{[((3R)-1-{3-[(4′-cyano[1,1′-biphenyl]-4-yl)oxy]propyl}pyrrolidinyl)amino]sulfonyl}-4-methyl-1,3-thiazol-2-yl)acetamide] | 7.6
38 | N#Cc1ccc(-c2ccc(OCCCN3CC[C@@H](NS(=O)(=O)c4cccc5cccnc45)C3)cc2)cc1 [Example 40] | 51
39 | CCCCOc1ccc(S(=O)(=O)N[C@@H]2CCN(CCCOc3ccc(-c4ccc(C#N)cc4)cc3)C2)cc1 [Example 41, 4-butoxy-N-((3R)-1-{3-[(4′-cyano[1,1′-biphenyl]-4-yl)oxy]propyl}pyrrolidinyl)benzenesulfonamide] | 48
40 | COc1ccc(S(=O)(=O)N[C@@H]2CCN(CCCOc3ccc(-c4ccc(C#N)cc4)cc3)C2)cc1OC [Example 42] | 8.8
41 | Cc1ccc(S(=O)(=O)N[C@@H]2CCN(CCCOc3ccc(-c4ccc(C#N)cc4)cc3)C2)cc1Cl [Example 43, 3-chloro-N-((3R)-1-{3-[(4′-cyano[1,1′-biphenyl]-4-yl)oxy]propyl}pyrrolidinyl)-4-methylbenzenesulfonamide] | 37
42 | N#Cc1ccc(-c2ccc(OCCCN3CC[C@@H](NS(=O)(=O)C=Cc4ccccc4)C3)cc2)cc1 [Example 44] | 52
